In patent publication US4416884A, “Piperazinylbenzoheterocyclic compounds” (Otsuka Pharmaceutical Co., Ltd., priority 1978, dated 1983):
In brackets after ≈: the same amount, converted by molar mass. Like-named read-outs stand apart in the source and are kept apart here.

Key:
Assay in all cases: antimicrobial activity, serial dilution method on agar plate
Format in all cases: cell-based
[1] = system: Klebsiella pneumoniae
Method: (§1) The antimicrobial activity of the following test compounds on various test organisms listed below was determined by the serial dilution method on agar plate (Heart Infusion agar produced by Difco Co.) (see CHEMOTHERAPY 22, pp. 1126-1128 (1974)), and the minimum inhibitory concentrations (mcg/ml) obtained are shown in Table 1 below.
(§2) A sample of each test organism was prepared so that the population of the organism was 1×10^8 cells/ml (O.D. 660 mμ=0.07 to 0.16) and 1×10^6 cells/ml (which was obtained by diluting the above 1×10^8 cells/ml preparation).

[2] = system: Proteus rettgeri NIH 96; settings: Providencia rettgeri
Method: as §1, §2

[3] = system: Shigella Sonnei EW 33; settings: inoculum 1 × 10^8 cells/ml, read-out: Minimum Inhibitory Concentration
Method: as §1, §2

[4] = system: Staphylococcus aureus FDA 209 P
Method: as §1, §2

[5] = system: Escherichia Coli NIHJ; settings: inoculum 1 × 10^8 cells/ml, read-out: Minimum Inhibitory Concentration
Method: as §1, §2

[6] = system: Serattia marcescens IFO 12648
Method: as §1, §2

[7] = system: Pseudomonas aeruginosa ATCC 10145
Method: as §1, §2

[8] = system: Pseudomonas aeruginosa NCTC 10490
Method: as §1, §2

[9] = system: Salmonella typhi 0-901 (NCTC 8393); settings: Salmonella enterica
Method: as §1, §2

[10] = system: Pseudomonas aeruginosa E-2
Method: as §1, §2

[11] = system: Escherichia Coli NIHJ JC-2 (IFO 12734); settings: Escherichia coli, read-out: Minimum Inhibitory Concentration
Method: as §1, §2

[12] = system: Streptococcus pyogenes IID S-23
Method: as §1, §2

[13] = inoculum 1 × 10^8 cells/ml, read-out: Minimum Inhibitory Concentration
[14] = NIH96, inoculum 1 × 10^8 cells/ml, read-out: Minimum Inhibitory Concentration
[15] = FDA209, inoculum 1 × 10^8 cells/ml, read-out: Minimum Inhibitory Concentration
[16] = ATCC10145, inoculum 1 × 10^8 cells/ml, read-out: Minimum Inhibitory Concentration
[17] = NCTC10490, inoculum 1 × 10^8 cells/ml, read-out: Minimum Inhibitory Concentration
[18] = read-out: Minimum Inhibitory Concentration, inoculum 1 × 10^8 cells/ml
[19] = E2, inoculum 1 × 10^8 cells/ml, read-out: Minimum Inhibitory Concentration
[20] = ATCC10145, read-out: Minimum Inhibitory Concentration, inoculum 1 × 10^8 cells/ml
[21] = NCTC10490, read-out: Minimum Inhibitory Concentration, inoculum 1 × 10^8 cells/ml
[22] = IIDS23, inoculum 1 × 10^8 cells/ml, read-out: Minimum Inhibitory Concentration
[23] = IIDS23, read-out: Minimum Inhibitory Concentration, inoculum 1 × 10^8 cells/ml

SMILES	MIC [1, 13] [µg/mL]	MIC [2, 14] [µg/mL]	MIC [3] [µg/mL]	MIC [4, 15] [µg/mL]	MIC [5] [µg/mL]	MIC [6, 13] [µg/mL]	MIC [7, 16] [µg/mL]	MIC [8, 17] [µg/mL]	MIC [9, 18] [µg/mL]	MIC [10, 19] [µg/mL]	MIC ([11]; inoculum 1 × 10^8 cells/ml) [µg/mL]	MIC [12, 22] [µg/mL]	other results
CC1(C)SC2C(NC(=O)C(NC(=O)c3cn4c5c(c(N6CCN(S(C)(=O)=O)CC6)ccc5c3=O)CCC4)c3ccccc3)C(=O)N2C1C(=O)O (centres unmarked) [Compound J, 6-{2-[8-(4-Methanesulfonyl-1-piperazinyl)-6,7-dihydro-1-oxo-1H,5H--benzo[ij]quinolizine-2-carboxamido]-2-phenylacetamido}-3,3-dimethyl-7-oxo-4-thia-1-azabicyclo[3,2,0]-heptane-2-carboxylic acid, reference compound]	6.3 (≈ 8.72 µM)	12.5 (≈ 17.3 µM)	6.3 (≈ 8.72 µM)	0.8 (≈ 1.11 µM)	3.1 (≈ 4.29 µM)	50 (≈ 69.2 µM)	12.5 (≈ 17.3 µM)	3.1 (≈ 4.29 µM)	3.1 (≈ 4.29 µM)	25 (≈ 34.6 µM)			
CC1(C)SC2C(NC(=O)C(NC(=O)c3cn4c5c(c(N6CCNCC6)cc(Cl)c5c3=O)CCC4)c3ccccc3)C(=O)N2C1C(=O)O (centres unmarked) [Compound K, 6-{2-[10-Chloro-8-(1-piperazinyl)-6,7-dihydro-1-oxo-1H,5H--benzo[ij]quinolizine-2-carboxamido]-2-phenylacetamido}-3,3-dimethyl-7-oxo-4-thia-1-azabicyclo[3,2,0]heptane-2-carboxylic acid, reference compound]	6.3 (≈ 9.28 µM)	12.5 (≈ 18.4 µM)	3.1 (≈ 4.56 µM)	0.8 (≈ 1.18 µM)	6.3 (≈ 9.28 µM)	12.5 (≈ 18.4 µM)	12.5 (≈ 18.4 µM)	3.1 (≈ 4.56 µM)	3.1 (≈ 4.56 µM)	25 (≈ 36.8 µM)			
CC(=O)N1CCN(c2ccc3c(=O)c(C(=O)NC(C(=O)NC4C(=O)N5C4SC(C)(C)C5C(=O)O)c4ccccc4)cn4c3c2CCC4)CC1 (centres unmarked) [H]		25 (≈ 36.4 µM)	12.5 (≈ 18.2 µM)	1.6 (≈ 2.33 µM)	6.3 (≈ 9.17 µM)	50 (≈ 72.8 µM)		3.1 (≈ 4.51 µM)	6.3 (≈ 9.17 µM)	25 (≈ 36.4 µM)			MIC [1, 18]: 12.5 µg/mL (≈ 18.2 µM); MIC [7, 20]: 12.5 µg/mL (≈ 18.2 µM)
CC1(C)SC2C(NC(=O)C(NC(=O)c3cn4c5c(c(N6CCNCC6)ccc5c3=O)CCC4)c3ccccc3)C(=O)N2C1C(=O)O (centres unmarked) [I]	0.8 (≈ 1.24 µM)	0.4 (≈ 0.62 µM)	3.1 (≈ 4.81 µM)	0.1 (≈ 0.155 µM)	1.6 (≈ 2.48 µM)	12.5 (≈ 19.4 µM)	25 (≈ 38.8 µM)	6.3 (≈ 9.77 µM)	0.2 (≈ 0.31 µM)	25 (≈ 38.8 µM)			
CC1CCc2c(N3CCN(C(=O)C(F)(F)F)CC3)c(Cl)cc3c(=O)c(C(=O)O)cn1c23 (centres unmarked) [b]	0.39 (≈ 0.852 µM)	0.2 (≈ 0.437 µM)	1.56 (≈ 3.41 µM)	3.13 (≈ 6.84 µM)			3.13 (≈ 6.84 µM)		0.39 (≈ 0.852 µM)	3.13 (≈ 6.84 µM)	0.39 (≈ 0.852 µM)	6.25 (≈ 13.7 µM)	MIC [6, 18]: 1.56 µg/mL (≈ 3.41 µM); MIC [8, 21]: 1.56 µg/mL (≈ 3.41 µM)
CC1CCc2c(N3CCN(CC(F)(F)F)CC3)c(Cl)cc3c(=O)c(C(=O)O)cn1c23 (centres unmarked) [c]	0.39 (≈ 0.879 µM)	0.39 (≈ 0.879 µM)	1.56 (≈ 3.51 µM)	0.1 (≈ 0.225 µM)		0.39 (≈ 0.879 µM)	3.13 (≈ 7.05 µM)	0.78 (≈ 1.76 µM)	0.2 (≈ 0.451 µM)	6.25 (≈ 14.1 µM)	0.39 (≈ 0.879 µM)		MIC [12, 23]: 1.56 µg/mL (≈ 3.51 µM)
CC1CCc2c(N3CCN(C(=O)C(F)(F)C(F)(F)F)CC3)c(Cl)cc3c(=O)c(C(=O)O)cn1c23 (centres unmarked) [d]	0.39 (≈ 0.768 µM)	0.2 (≈ 0.394 µM)	0.78 (≈ 1.54 µM)	1.56 (≈ 3.07 µM)		0.2 (≈ 0.394 µM)	1.56 (≈ 3.07 µM)	3.13 (≈ 6.16 µM)	0.1 (≈ 0.197 µM)	6.25 (≈ 12.3 µM)	0.39 (≈ 0.768 µM)	12.5 (≈ 24.6 µM)	
CC1CCc2c(N3CCN(C(=O)C(F)(F)C(F)(F)C(F)(F)F)CC3)c(Cl)cc3c(=O)c(C(=O)O)cn1c23 (centres unmarked) [e]			0.78 (≈ 1.4 µM)										MIC [1, 18]: 0.39 µg/mL (≈ 0.699 µM); MIC ([2]; NIH96, read-out: Minimum Inhibitory Concentration, inoculum 1 × 10^8 cells/ml): 0.2 µg/mL (≈ 0.359 µM); MIC ([4]; FDA209, read-out: Minimum Inhibitory Concentration, inoculum 1 × 10^8 cells/ml): 3.13 µg/mL (≈ 5.61 µM); MIC [6, 18]: 0.2 µg/mL (≈ 0.359 µM); MIC [7, 20]: 1.56 µg/mL (≈ 2.8 µM); MIC [8, 21]: 3.13 µg/mL (≈ 5.61 µM); MIC [11]: 0.39 µg/mL (≈ 0.699 µM); MIC [12, 23]: 6.25 µg/mL (≈ 11.2 µM); MIC [9, 13]: 0.2 µg/mL (≈ 0.359 µM); MIC ([10]; E2, read-out: Minimum Inhibitory Concentration, inoculum 1 × 10^8 cells/ml): 6.25 µg/mL (≈ 11.2 µM)
CC1CCc2c(N3CCN(CCO)CC3)c(F)cc3c(=O)c(C(=O)O)cn1c23 (centres unmarked) [f]	0.78 (≈ 2 µM)	0.2 (≈ 0.514 µM)	0.78 (≈ 2 µM)	0.78 (≈ 2 µM)		0.39 (≈ 1 µM)	6.25 (≈ 16 µM)	12.5 (≈ 32.1 µM)	0.39 (≈ 1 µM)	12.5 (≈ 32.1 µM)	0.39 (≈ 1 µM)	3.13 (≈ 8.04 µM)	
COc1ccc(CN2CCN(c3c(Cl)cc4c(=O)c(C(=O)O)cn5c4c3CCC5C)CC2)cc1 (centres unmarked) [g]	0.78 (≈ 1.62 µM)	0.1 (≈ 0.207 µM)	1.56 (≈ 3.24 µM)	0.78 (≈ 1.62 µM)		0.39 (≈ 0.809 µM)	6.25 (≈ 13 µM)	12.5 (≈ 25.9 µM)	0.78 (≈ 1.62 µM)	12.5 (≈ 25.9 µM)	0.78 (≈ 1.62 µM)	3.13 (≈ 6.49 µM)	
C=CCN1CCN(c2c(Cl)cc3c(=O)c(C(=O)O)cn4c3c2CCC4C)CC1 (centres unmarked) [h]	0.78 (≈ 1.94 µM)	0.2 (≈ 0.498 µM)	1.56 (≈ 3.88 µM)	0.78 (≈ 1.94 µM)		0.78 (≈ 1.94 µM)	12.5 (≈ 31.1 µM)	12.5 (≈ 31.1 µM)	0.78 (≈ 1.94 µM)	12.5 (≈ 31.1 µM)	0.78 (≈ 1.94 µM)	3.13 (≈ 7.79 µM)	
C#CCN1CCN(c2c(Cl)cc3c(=O)c(C(=O)O)cn4c3c2CCC4C)CC1 (centres unmarked) [i]	0.78 (≈ 1.95 µM)	0.2 (≈ 0.5 µM)	1.56 (≈ 3.9 µM)	0.39 (≈ 0.975 µM)		0.78 (≈ 1.95 µM)	12.5 (≈ 31.3 µM)	12.5 (≈ 31.3 µM)	0.78 (≈ 1.95 µM)	25 (≈ 62.5 µM)			MIC [11]: 1.56 µg/mL (≈ 3.9 µM); MIC [12, 23]: 1.56 µg/mL (≈ 3.9 µM)
